What all share (assay type): cell-based
One experiment addresses AXL (Homo sapiens (Human), UniProt P30530). The experiment is described as follows: AXL autophosphorylation ELISA in A-172 cells. The note with it: cellular, Gas6 stimulated. The gist of the method: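 Serum-starved (24 h) A-172 glioblastoma cells pretreated 1 h with compounds (8-point curve, 0.3% DMSO), then stimulated 15 min with 1 μg/mL Gas6. Lysate phospho-AXL measured by sandwich ELISA against a phospho-AXL standard; IC50 from 4-parameter logistic fit between DMSO and reference-inhibitor controls.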
(In an ELISA, binding on a coated surface is turned into a signal by an enzyme label.)

The target of a further experiment is Mer (Homo sapiens (Human), UniProt Q12866). Description: Mer autophosphorylation ELISA in transient transfected 293A cells. The note with it: cellular, MERTK transfected 293A cells. Here is the method: 293A cells (Thermo Fisher #R70507) were seeded at 1.5×10^6 cells/well onto 100 mm dish (Greiner #664169), in DMEM (Thermo Fisher #11995-040) containing 10% FBS (Thermo Fisher #26140-079), 1% MEM NEAA (Thermo Fisher #11140-050), 1% GlutaMax (Thermo Fisher #35050-061), and 1% Penicillin Streptomycin (Thermo Fisher #15140-122). 293A cells were incubated at 37° C., 5% CO2 for 24 h and then transfected with 6 μg MERTK DNA (Genecopoeia #EX-Z8208-M02) using TransIT LT1 transfection reagent (Mirus-Bio #MIR2305). After 24 h incubation, the transfected 293A cells were seeded at 1×10^5 cells/well onto 96-well plates (Corning #3904) in DMEM growth medium overnight. Test compounds were serially diluted to produce an 8-point dose curve in fresh serum-free medium to a final concentration of 0.3% DMSO (vehicle) and added to the cells and incubated for 1 h. Cells were then immediately lysed with 150 μL of cold 1× lysis buffer [20 mM Tris, 137 mM sodium chloride, 2 mM EDTA, 10% glycerol, 1% NP-40 alternative, 1 mM activated sodium orthovanadate, 1 mM PefaBloc SC (Sigma-Aldrich #11429868001), protease/phosphatase inhibitor tablet (Thermo Fisher #A32959)]. Lysates were clarified by centrifugation and 50 μL/well added into the human phospho-Mer DuoSet IC ELISA (R&D Systems #DYC2579-2). Assay was performed according to manufacturer's instructions and sample phospho-Mer concentrations were extrapolated using human phospho-Mer control (R&D Systems #841793) as a standard. Positive control wells (100% activity) contained DMSO-treated cell lysates. Negative control wells (0% activity) contained reference inhibitor-treated cell lysates. IC50 values were calculated by nonlinear regression analysis using a 4-parameter logistic curve fit in ActivityBase XE (IDBS).

The target in the next experiment is Met (Homo sapiens (Human), UniProt P08581). The experiment is described as follows: Met autophosphorylation ELISA in PC-3 cells. The note with it: cellular, HGF stimulated, read-out: c-Met IC50. The gist of the method: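 Phospho-Met (panTyr) sandwich ELISA on lysates of PC-3 cells given 100 ng/mL HGF for 10 min after 1 h compound exposure (8-point curve, 0.3% DMSO) following 3 h serum starvation. Normalised to HGF-stimulated DMSO and reference-inhibitor wells; 4-parameter logistic IC50.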

A further experiment deals with KDR (Homo sapiens (Human), UniProt P35968). Description: KDR autophosphorylation ELISA in HUVEC cells. The note with it: cellular, VEGF165 stimulated. The procedure, abridged:
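Serum-starved (24 h) primary HUVEC were pretreated 1 h with compounds (8-point dilution, 0.3% DMSO final), then stimulated 5 min with 100 ng/mL VEGF165. Lysate phospho-KDR quantified by sandwich ELISA against a phospho-KDR standard; IC50 by 4-parameter fit, normalised to stimulated DMSO and unstimulated controls.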

pIC50: −log10 of the molar value. Counter-ions that a name gives are not always drawn.

Mer, sequence (Q12866 21-999): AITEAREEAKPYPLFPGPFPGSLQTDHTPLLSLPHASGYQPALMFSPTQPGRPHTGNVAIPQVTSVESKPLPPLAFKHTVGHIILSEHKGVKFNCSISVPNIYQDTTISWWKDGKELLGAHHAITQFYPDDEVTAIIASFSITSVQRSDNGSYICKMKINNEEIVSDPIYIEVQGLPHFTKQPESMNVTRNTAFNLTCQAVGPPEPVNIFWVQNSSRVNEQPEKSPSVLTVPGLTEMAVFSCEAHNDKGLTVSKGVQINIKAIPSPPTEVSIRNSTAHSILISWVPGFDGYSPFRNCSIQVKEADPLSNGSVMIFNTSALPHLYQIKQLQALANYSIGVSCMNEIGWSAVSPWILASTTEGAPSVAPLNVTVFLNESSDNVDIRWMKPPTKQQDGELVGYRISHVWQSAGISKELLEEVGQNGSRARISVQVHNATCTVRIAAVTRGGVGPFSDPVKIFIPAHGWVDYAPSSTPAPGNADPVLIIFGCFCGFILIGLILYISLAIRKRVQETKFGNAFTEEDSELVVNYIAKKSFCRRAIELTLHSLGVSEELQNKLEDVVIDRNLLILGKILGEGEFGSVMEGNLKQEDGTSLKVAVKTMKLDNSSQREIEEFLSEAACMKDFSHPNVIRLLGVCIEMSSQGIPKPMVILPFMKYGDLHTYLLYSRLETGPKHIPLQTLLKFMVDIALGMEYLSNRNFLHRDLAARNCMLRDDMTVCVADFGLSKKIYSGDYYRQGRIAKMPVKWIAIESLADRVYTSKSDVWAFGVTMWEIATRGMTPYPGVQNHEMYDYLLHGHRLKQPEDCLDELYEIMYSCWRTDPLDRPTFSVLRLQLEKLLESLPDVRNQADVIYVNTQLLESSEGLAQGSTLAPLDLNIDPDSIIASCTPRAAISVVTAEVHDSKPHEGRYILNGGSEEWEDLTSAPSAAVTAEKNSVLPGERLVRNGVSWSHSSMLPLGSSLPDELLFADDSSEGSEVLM
AXL, sequence (P30530 26-894): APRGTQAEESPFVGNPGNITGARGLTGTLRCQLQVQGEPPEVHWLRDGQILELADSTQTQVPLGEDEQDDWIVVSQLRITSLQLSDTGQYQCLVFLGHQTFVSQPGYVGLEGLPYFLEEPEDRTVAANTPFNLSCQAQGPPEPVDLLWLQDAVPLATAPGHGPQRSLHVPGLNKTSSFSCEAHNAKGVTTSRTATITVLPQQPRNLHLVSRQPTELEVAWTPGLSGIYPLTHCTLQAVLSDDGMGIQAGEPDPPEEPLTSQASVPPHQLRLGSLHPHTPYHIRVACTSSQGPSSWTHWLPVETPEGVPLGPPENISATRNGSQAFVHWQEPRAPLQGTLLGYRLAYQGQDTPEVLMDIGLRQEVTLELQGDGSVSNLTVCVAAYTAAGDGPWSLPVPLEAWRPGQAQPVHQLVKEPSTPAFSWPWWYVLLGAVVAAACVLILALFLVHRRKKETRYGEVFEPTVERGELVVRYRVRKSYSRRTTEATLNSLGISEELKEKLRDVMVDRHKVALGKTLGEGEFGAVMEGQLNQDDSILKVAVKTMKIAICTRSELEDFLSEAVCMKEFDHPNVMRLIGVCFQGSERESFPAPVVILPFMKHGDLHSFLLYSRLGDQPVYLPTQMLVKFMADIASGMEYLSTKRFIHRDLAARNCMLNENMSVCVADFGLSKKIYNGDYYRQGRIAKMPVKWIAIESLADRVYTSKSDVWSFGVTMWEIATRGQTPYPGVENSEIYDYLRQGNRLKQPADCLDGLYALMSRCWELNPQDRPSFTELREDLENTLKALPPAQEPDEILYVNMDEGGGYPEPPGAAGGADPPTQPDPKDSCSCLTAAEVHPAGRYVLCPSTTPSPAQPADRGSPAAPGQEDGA
KDR, sequence (P35968 20-1356): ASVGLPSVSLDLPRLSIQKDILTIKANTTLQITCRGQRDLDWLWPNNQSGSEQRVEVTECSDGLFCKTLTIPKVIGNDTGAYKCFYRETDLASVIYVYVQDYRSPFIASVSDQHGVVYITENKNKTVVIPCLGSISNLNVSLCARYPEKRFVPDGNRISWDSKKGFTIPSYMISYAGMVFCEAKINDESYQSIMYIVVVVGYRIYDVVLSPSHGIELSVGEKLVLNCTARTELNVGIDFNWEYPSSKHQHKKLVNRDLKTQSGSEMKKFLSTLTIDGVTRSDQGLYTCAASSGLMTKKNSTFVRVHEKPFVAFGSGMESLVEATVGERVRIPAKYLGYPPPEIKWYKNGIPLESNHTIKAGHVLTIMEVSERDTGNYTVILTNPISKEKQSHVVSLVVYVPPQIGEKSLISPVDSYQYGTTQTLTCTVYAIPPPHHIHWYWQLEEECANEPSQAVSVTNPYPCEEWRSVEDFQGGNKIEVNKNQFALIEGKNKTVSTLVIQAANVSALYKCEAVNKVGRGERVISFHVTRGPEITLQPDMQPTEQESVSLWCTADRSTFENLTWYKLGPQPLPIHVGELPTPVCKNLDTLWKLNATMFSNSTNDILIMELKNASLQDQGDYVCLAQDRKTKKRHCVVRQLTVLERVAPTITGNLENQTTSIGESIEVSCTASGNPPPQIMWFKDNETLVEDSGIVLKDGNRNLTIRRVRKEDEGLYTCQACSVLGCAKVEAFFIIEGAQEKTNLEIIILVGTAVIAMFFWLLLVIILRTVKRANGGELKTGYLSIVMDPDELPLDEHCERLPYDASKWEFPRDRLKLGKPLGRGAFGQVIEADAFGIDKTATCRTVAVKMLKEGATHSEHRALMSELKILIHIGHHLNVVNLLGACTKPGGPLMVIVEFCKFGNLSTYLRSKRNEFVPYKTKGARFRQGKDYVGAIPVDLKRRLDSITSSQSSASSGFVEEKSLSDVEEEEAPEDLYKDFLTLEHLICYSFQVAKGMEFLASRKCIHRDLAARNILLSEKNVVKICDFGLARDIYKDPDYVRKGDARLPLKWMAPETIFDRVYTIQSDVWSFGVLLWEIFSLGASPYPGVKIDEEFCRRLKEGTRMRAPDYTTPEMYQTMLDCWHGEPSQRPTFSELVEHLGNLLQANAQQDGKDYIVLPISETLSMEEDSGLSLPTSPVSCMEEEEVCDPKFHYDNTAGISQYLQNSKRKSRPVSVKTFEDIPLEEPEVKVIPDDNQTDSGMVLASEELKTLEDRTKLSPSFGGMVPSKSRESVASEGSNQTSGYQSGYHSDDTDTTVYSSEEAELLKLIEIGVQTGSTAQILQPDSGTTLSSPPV
Met, sequence (P08581 25-1390): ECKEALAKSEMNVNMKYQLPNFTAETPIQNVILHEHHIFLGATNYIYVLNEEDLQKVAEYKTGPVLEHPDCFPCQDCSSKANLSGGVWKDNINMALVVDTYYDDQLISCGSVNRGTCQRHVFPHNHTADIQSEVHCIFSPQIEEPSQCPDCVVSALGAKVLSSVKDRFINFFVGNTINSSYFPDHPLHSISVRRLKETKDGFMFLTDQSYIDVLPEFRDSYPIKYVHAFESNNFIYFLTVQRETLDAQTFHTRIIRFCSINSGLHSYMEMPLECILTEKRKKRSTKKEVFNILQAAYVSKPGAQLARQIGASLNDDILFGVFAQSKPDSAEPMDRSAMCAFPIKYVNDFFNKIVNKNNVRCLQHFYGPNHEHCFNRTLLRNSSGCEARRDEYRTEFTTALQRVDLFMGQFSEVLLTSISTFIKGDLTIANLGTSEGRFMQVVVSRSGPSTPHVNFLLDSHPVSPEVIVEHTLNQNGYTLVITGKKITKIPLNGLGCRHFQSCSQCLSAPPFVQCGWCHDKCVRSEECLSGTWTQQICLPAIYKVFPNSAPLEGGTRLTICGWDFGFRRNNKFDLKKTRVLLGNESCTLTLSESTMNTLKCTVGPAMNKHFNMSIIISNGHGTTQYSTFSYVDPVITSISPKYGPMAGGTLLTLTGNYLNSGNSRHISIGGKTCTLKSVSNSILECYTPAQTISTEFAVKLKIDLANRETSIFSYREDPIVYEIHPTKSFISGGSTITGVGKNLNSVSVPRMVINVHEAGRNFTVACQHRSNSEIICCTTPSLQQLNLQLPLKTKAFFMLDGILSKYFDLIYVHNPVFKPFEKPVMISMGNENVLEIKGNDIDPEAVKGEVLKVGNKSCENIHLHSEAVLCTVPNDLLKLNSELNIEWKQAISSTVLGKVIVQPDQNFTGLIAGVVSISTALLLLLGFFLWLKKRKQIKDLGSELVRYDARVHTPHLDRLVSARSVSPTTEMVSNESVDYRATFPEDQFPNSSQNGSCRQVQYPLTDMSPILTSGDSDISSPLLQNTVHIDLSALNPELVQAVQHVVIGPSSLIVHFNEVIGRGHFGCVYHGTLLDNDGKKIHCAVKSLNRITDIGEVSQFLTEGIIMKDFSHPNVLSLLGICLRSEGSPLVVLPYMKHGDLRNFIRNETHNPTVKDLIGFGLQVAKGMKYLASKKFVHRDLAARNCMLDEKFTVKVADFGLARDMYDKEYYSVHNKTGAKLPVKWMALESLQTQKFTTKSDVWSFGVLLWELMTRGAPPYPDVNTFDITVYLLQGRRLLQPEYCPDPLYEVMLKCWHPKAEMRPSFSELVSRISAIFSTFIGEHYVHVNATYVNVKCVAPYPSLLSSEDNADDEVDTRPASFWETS

As for `CCNC(=O)c1ccc2c(Oc3ccc(NC(=O)C4(C(=O)Nc5ccc(F)cc5)CC4)cc3)ccnc2c1` [Compound 214, 1-N-[4-[7-(Ethylcarbamoyl)quinolin-4-yl]oxyphenyl]-1-N′-(4-fluorophenyl)cyclopropane-1,1-dicarboxamide], the pIC50 against AXL, against Mer, on Met and at KDR was 7.00 to 8.00 each time.

As for `CNC(=O)c1cc2c(Oc3ccc(NC(=O)C4(C(=O)Nc5ccc(F)cc5)CC4)cc3)ccnc2cc1OCCO` [Compound 110, 1-N′-(4-Fluorophenyl)-1-N-[4-[7-(2-hydroxyethoxy)-6-(methylcarbamoyl)quinolin-4-yl]oxyphenyl]cyclopropane-1,1-dicarboxamide], the pIC50 (in general, the IC50 on a negative log10 scale, so that one unit is a factor of ten) on AXL was not below 8.00; against Mer it was 7.00 to 8.00; on Met, not below 8.00; against KDR, not below 8.00.

As for `CNC(=O)c1cc2nccc(Oc3c(F)cc(NC(=O)C4(C(=O)Nc5ccc(F)cc5)CC4)c(F)c3F)c2cc1C` [Compound 292, 1-N-(4-Fluorophenyl)-1-N′-[2,3,5-trifluoro-4-[6-methyl-7-(methylcarbamoyl)quinolin-4-yl]oxyphenyl]cyclopropane-1,1-dicarboxamide], the negative-log IC50 (pIC50) is 7.00 to 8.00 at AXL, 7.00 to 8.00 against Mer, 7.00 to 8.00 on Met and less than 6.52 at KDR.

With `CCc1noc(-c2cc3c(Oc4ccc(NC(=O)C5(C(=O)Nc6ccc(F)cc6)CC5)cc4)ccnc3cc2OC)n1` [Compound 283, 1-N-[4-[6-(3-Ethyl-1,2,4-oxadiazol-5-yl)-7-methoxyquinolin-4-yl]oxyphenyl]-1-N′-(4-fluorophenyl)cyclopropane-1,1-dicarboxamide Hydrochloride], the pIC50 against AXL, at Mer, on Met and against KDR was 7.00 to 8.00 in each case.

Consider `CONC(=O)c1ccc2c(Oc3ccc(NC(=O)C4(C(=O)Nc5ccc(F)cc5)CC4)cc3)ccnc2c1` [Compound 213, 1-N′-(4-Fluorophenyl)-1-N-[4-[7-(methoxycarbamoyl)quinolin-4-yl]oxyphenyl]cyclopropane-1,1-dicarboxamide], for which the pIC50 against AXL is 7.00 to 8.00; on Mer it was 7.00 to 8.00; at Met, 7.00 to 8.00; against KDR, 6.52 to 7.00.

With `COc1cc2nccc(Oc3ccc(NC(=O)C4(C(=O)Nc5ccc(F)cc5)CC4)cc3)c2cc1C(=O)NOCC(O)CO` (single isomer, unassigned) [Compound 31, 1-N-[4-[6-(2,3-dihydroxypropoxycarbamoyl)-7-methoxyquinolin-4-yl]oxyphenyl]-1-N′-(4-fluorophenyl)cyclopropane-1,1-dicarboxamide], the negative-log IC50 (pIC50) was 7.00 to 8.00 against AXL, less than 6.52 at Mer, 6.52 to 7.00 on Met and 7.00 to 8.00 at KDR.

For `CNC(=O)c1cc2c(Oc3ccc(NC(=O)C4(C(=O)Nc5ccc(F)cc5Cl)CC4)cc3F)ccnc2cc1OC` [Compound 264, 1-N′-(2-Chloro-4-fluorophenyl)-1-N-[3-fluoro-4-[7-methoxy-6-(methylcarbamoyl)quinolin-4-yl]oxyphenyl]cyclopropane-1,1-dicarboxamide], the pIC50 at AXL, at Mer, at Met and against KDR was 7.00 to 8.00 each time.

`COc1cc2nccc(Oc3ccc(NC(=O)C4(C(=O)Nc5ccc(F)cc5)CC4)cc3)c2cc1C(C)=O` [Compound 34, 1-N-[4-(6-acetyl-7-methoxyquinolin-4-yl)oxyphenyl]-1-N′-(4-fluorophenyl)cyclopropane-1,1-dicarboxamide]: the pIC50 against AXL was not below 8.00; against Mer, not below 8.00; at Met it was 7.00 to 8.00; against KDR, not below 8.00.

Regarding `O=C(NOC[C@H](O)CO)c1ccc2c(Oc3ccc(NC(=O)C4(C(=O)Nc5ccc(F)cc5)CC4)cc3)ccnc2c1` [Compound 169, 1-N-[4-[7-[[(2R)-2,3-Dihydroxypropoxy]carbamoyl]quinolin-4-yl]oxyphenyl]-1-N′-(4-fluorophenyl)cyclopropane-1,1-dicarboxamide], the pIC50 against AXL is 6.52 to 7.00; against Mer it was less than 6.52; on Met it was 6.52 to 7.00; against KDR it was 6.52 to 7.00.

Turning to `Cc1cc2c(Oc3cc(F)c(NC(=O)C4(C(=O)Nc5ccc(F)cc5)CC4)cc3F)ccnc2cc1C(N)=O` [Compound 294, 1-N′-[4-(7-Carbamoyl-6-methylquinolin-4-yl)oxy-2,5-difluorophenyl]-1-N-(4-fluorophenyl)cyclopropane-1,1-dicarboxamide], the negative-log IC50 (pIC50) at AXL was not below 8.00; against Mer it was not below 8.00; on Met, not below 8.00; at KDR it was 7.00 to 8.00.

Take `COc1cc2nccc(Oc3ccc(NC(=O)C4(C(=O)Nc5ccc(F)cc5)CC4)cc3)c2cc1C(=O)NOC1COC1` [Compound 26, 1-N′-(4-fluorophenyl)-1-N-[4-[7-methoxy-6-(oxetan-3-yloxycarbamoyl)quinolin-4-yl]oxyphenyl]cyclopropane-1,1-dicarboxamide]: the pIC50 against AXL is 7.00 to 8.00; at Mer, 7.00 to 8.00; at Met, 7.00 to 8.00; against KDR, not below 8.00.

Turning to `CNC(=O)c1cc2nccc(Oc3cc(Cl)c(NC(=O)C4(C(=O)Nc5ccc(F)cc5)CC4)cc3F)c2cc1C` [Compound 291, 1-N′-[2-Chloro-5-fluoro-4-[6-methyl-7-(methylcarbamoyl)quinolin-4-yl]oxyphenyl]-1-N-(4-fluorophenyl)cyclopropane-1,1-dicarboxamide], the negative-log IC50 (pIC50) against AXL was 7.00 to 8.00; on Mer, 7.00 to 8.00; on Met, 7.00 to 8.00; against KDR, less than 6.52.

`NC(=O)c1cc2c(Oc3ccc(NC(=O)C4(C(=O)Nc5ccc(F)cc5)CC4)cc3)ccnc2cc1NCCCN1CCOCC1` [Compound 71, 1-N-[4-[6-Carbamoyl-7-(3-morpholin-4-ylpropylamino)quinolin-4-yl]oxyphenyl]-1-N′-(4-fluorophenyl)cyclopropane-1,1-dicarboxamide]: the negative logarithm of the IC50 (pIC50) against AXL, against Mer, at Met and against KDR was 7.00 to 8.00 each time.

In the case of `COc1cc2nccc(Oc3ccc(NC(=O)C4(C(=O)Nc5ccc(F)cc5)CC4)cc3)c2cc1C(=O)NO` [Compound 20, 1-N′-(4-fluorophenyl)-1-N-[4-[6-(hydroxycarbamoyl)-7-methoxyquinolin-4-yl]oxyphenyl]cyclopropane-1,1-dicarboxamide], the pIC50 against AXL, at Mer, at Met and against KDR was 7.00 to 8.00 each time.

As for `CNC(=O)c1cc2c(Oc3ccc(NC(=O)C4(C(=O)Nc5ccc(Cl)cc5)CC4)cc3F)ccnc2cc1OC` [Compound 274, 1-N-(4-Chlorophenyl)-1-N′-[3-fluoro-4-[7-methoxy-6-(methylcarbamoyl)quinolin-4-yl]oxyphenyl]cyclopropane-1,1-dicarboxamide], the pIC50 is 7.00 to 8.00 against AXL, not below 8.00 against Mer, 7.00 to 8.00 on Met and not below 8.00 against KDR.
